# Data from US8399447B2, “Metal triangulo compound and methods of using the same” (National University of Singapore, priority 2007, dated 2013).
# Entries after “also recorded” stand apart in the source; their conditions may differ.
# Key:
# [1] = test system: HL-60 cells; experiment: DNA fragmentation by propidium iodide flow cytometry, HL-60; assay type: cell-based, human; conditions: HL-60, 12.5 and 25 μM, 24 hours
# Description: FIG. 4 depicts the detection of DNA Fragmentation. DNA cleavage in [Os3(CO)10(μ-H)(μ-S)C9H6N]-treated tumour cells was assessed using flow cytometric analysis. HL-60 cells were treated with 12.5 and 25 μM [Os3(CO)10(pt-H)(μ-S)C9H6N] for 24 hours, immediately fixed in ethanol, and stained with PI for DNA content analysis. SubG1 population indicates subdiplod DNA content indicative of apoptotic DNA fragmentation. Data shown are representative of at least three independent experiments.
# For cellular DNA content determination, 1×10^6 cells/ml from each cell line were treated with [Os3(CO)10(μ-H)(μ-S)C9H6N]. After treatment, cells were washed twice with 1×PBS+1 FBS. Sample preparation and staining with PI for DNA content were performed as described elsewhere (32). […]
# Fixed cells were left at 4° C. for 30 min, centrifuged at 1000×g for 5 min and washed once with 1×PBS+1% FBS. […] Stained cells were analyzed by flow cytometry with the excitation set at 488 nm and the emission set at 610 nm (red).
# The ability of the cells to scatter light in a forward direction (FS) correlates with cell volume. Os drug-treated cells were analysed for changes in the intensity of FS as compared to untreated control cells. A total of 10,000 cells per sample were studied and data were analyzed by the WINMDI software.
# [2] = test system: Jurkat Neo and Jurkat BCL2 cells; experiment: DNA fragmentation by PI, Jurkat Neo and Jurkat BCL2; assay type: cell-based; conditions: 12.5 and 25 μM, 18 hours; for DNA fragmentation / apoptosis with Bcl-2 overexpression: BCl2 overexpressing jurkat cells
# Description: Jurkat Neo and Jurkat BCL2 cells were treated with 12.5 and 25 μM of [Os3(CO)10(μ-H)(μ-S)C9H6N] for 18 hours, immediately fixed in ethanol and stained with PI for DNA content analysis. Sub-G1 population indicates subdiploid DNA content indicative of apoptotic. The DNA fragmentation induced by [Os3(CO)10(μ-H)(μ-S)C9H6N] is inhibited in BCl2 overexpressing jurkat cells. Data shown are representative of at least three independent experiments.
# For cellular DNA content determination, 1×10^6 cells/ml from each cell line were treated with [Os3(CO)10(μ-H)(μ-S)C9H6N]. After treatment, cells were washed twice with 1×PBS+1 FBS. Sample preparation and staining with PI for DNA content were performed as described elsewhere (32). Briefly, cell pellets were resuspended in 0.5 ml of 1×PBS+1% FBS and immediately fixed by adding 5 ml of 70% ethanol while vortexing to avoid clumping.
# Fixed cells were left at 4° C. for 30 min, centrifuged at 1000×g for 5 min and washed once with 1×PBS+1% FBS. Cell pellets were then suspended in 0.5 ml of PI/RNAse. A solution prepared by adding 1/50 volume of PI stock and 1/40 volume of RNAse. A stock to 1×PBS+1% FBS and incubated for 30 min at 37° C. Stained cells were analyzed by flow cytometry with the excitation set at 488 nm and the emission set at 610 nm (red).
# [3] = test system: jurkat cells; experiment: Intracellular superoxide, lucigenin chemiluminescence, Jurkat; assay type: cell-based; conditions: 12.5 and 25 μM, 2 h and 4 h (FIG. 5A)
# Description: (§1) (A) Jurkat cells and (B) HL-60 cells (2×10^6) were incubated with 12.5 and 25 μM [Os3(CO)10(μ-H)(μ-S)C9H6N] and […] O2^− was measured by a lucigenine-based chemiluminescence assay (C) A, cytosolic pH was determined with the pH-sensitive probe 2′,7′-bis(2-carboxyethyl)-5,6-carboxy-fluorescein.
# (§2) A lucigenin-based chemiluminescence assay is routinely used in the laboratory as detailed in Clement and Pervaiz (Pervaiz S, Clement M V, Methods Enzymol. (2002) 352, 150-159). In brief, chemiluminescence was monitored using a Berthold Sirius Luminometer (Berthold Detection Systems GmbH, Bleichstralβe/Pforzheim, Germany). Data are described as relative light units/mg of protein (RLU/mg protein). Protein concentration was determined using the Coomassie Plus protein assay reagent from Pierce (Pierce Chemical Company, Rockford, Ill., USA) as detailed by the manufacturer.
# (§3) This example illustrates determining whether and to what extent apoptosis induced by an osmium triangulo compound of the present invention is accompanied by an increase in intracellular ROS production. Cells were exposed to [Os3(CO)10(μ-H)(μ-S)C9H6N] for 2 h and 4 h and intracellular O2^− production was measured by a lucigenin-based chemiluminescence assay.
# [4] = test system: HL-60 cells; experiment: Intracellular superoxide, lucigenin chemiluminescence, HL-60; assay type: cell-based, human; conditions: 12.5 and 25 μM, 2 h and 4 h (FIG. 5B)
# Description: as §1, §2, §3
# [5] = test system: cells; experiment: Intracellular pH with BCECF; assay type: cell-based; conditions: FIG. 5C
# Description: as §1
# Intracellular (pHi) was measured by loading cells with […] dye BCECF (Sigma). Briefly, cells (1×10^6) before or after exposure (2-12 h at 37° C.) to [Os3(CO)10(μ-H)(μ-S)C9H6N] was washed once with HBSS, resuspended in 0.1 ml of HBSS, and loaded with […] of 1 mM BCECF at 37° C. for 30 min in the dark. Cells were then resuspended in 0.5 ml of HBSS and analyzed using a Coulter Epics Elite ESP (Coulter, Hialeah, Fla.) flow cytometer with the excitation set at 488 nm. A minimum of 10,000 events was analyzed, and the ratio of BCECF fluorescence at 525 and 610 was used to obtain intracellular pH from a pH calibration curve. […] Immediately before flow cytometry, cells were loaded with […] nigericin (1 mM stock in absolute alcohol; Sigma), and fluorescence ratio measurements (525 nm/610 nm) of cells in nigericin-containing buffers of a range of pH were then used to relate histogram channel numbers to ipH. […]
# [6] = test system: HL-60 cells; experiment: Flow cytometric analysis of intracellular H2O2 (DCFH-DA); assay type: cell-based, human
# Description: Cells were then loaded with DCFH-DA (5 μM) for 15 minutes and the amount of intracellular H2O2 generated was indicated by the shift in fluorescence as detected by flow cytometry.
# Intracellular H2O2 was determined by staining with 2,7-dichloro-fluorescein diacetate (Molecular Probes, Eugene, Oreg.), which is oxidised to dichlorofluorescein by H2O2 described elsewhere (Hirpara, J. L., et al., J Biol. Chem. (2001) 276, 514-521). In brief, HL-60 cells were exposed to […] [Os3(CO)10(μ-H)(μ-S)C9H6N] 4 h, loaded with […] 2′,7′-dichlorofluorescein diacetate at 37° C. for […], and analysed by flow cytometry (Coulter Epics Elite ESP; excitation 488 nm). Catalase (1000 units/ml) was used to scavenge intracellular H2O2 before addition of the drugs and flow cytometric analysis of H2O2 for 4 h, followed by flow cytometry for H2O2. At least 10,000 events were analysed.
# [7] = test system: death receptor CD95; experiment: Surface expression of CD95 by flow cytometry; assay type: cell-based, human; parameters: dose or concentration left out as unconfirmed; conditions: HL60 cells, 12 hours
# Description: FIG. 8 depicts the upregulation of Cd95 by [Os3(CO)10(μ-H)(μ-S)C9H6N] in tumour cells. HL60 cells were treated with […] [Os3(CO)10(μ-H)(μ-S)C9H6N] for 12 hours and surface expression of CD95 was analysed by flow cytometry as described in Materials and Methods. The shaded histograms show unstained cells. Mouse IgG1k was used as an isotype control. At least 10,000 events were counted, and data shown are representative of at least three separate experiments.
# [8] = test system: caspases 2, 8, 9, and 3; experiment: Caspase activities (AFC substrates), HL60; assay type: cell-based, human; conditions: HL60 cells, within 6 hours; more pronounced than in Jurkat
# Description: (§4) Activities of caspases 8, 2, 9, and 3 were determined in lysates of [Os3(CO)10(μ-H)(μ-S)C9H6N]-treated (A) Jurkat and (B) HL 60 cells and shown as fold increase over untreated cells.
# (§5) Caspases 2, 3, 8, and 9 activities were assayed by using AFC-conjugated substrates supplied by Bio-Rad. Cells (1×10^6 cells/ml) were incubated with the drugs over a time course, washed twice with 1×PBS, resuspended in 50 μl of chilled cell lysis buffer (provided by the supplier), and incubated on ice for 10 min. 50 μl of 2× reaction buffer (10 mM HEPES, 2 mM EDTA, 10 mM KCl, 1.5 mM MgCl2, 10 mM dithiothreitol) and […] of the fluorogenic caspase-specific (VDVAD-AFC for caspase 2, DEVD-AFC for caspase 3, IETD-AFC for caspase 8, and LEHDAFC for caspase 9) were added to each sample and incubated at 37° C. for 1 h. Protease activity was determined by the relative fluorescence intensity at 505 nm following excitation at 400 nm using a spectrofluorimeter (Luminescence Spectrometer LS50B, PerkinElmer Life Sciences, Buckinghamshire, United Kingdom).
# [9] = test system: caspases 2, 8, 9, and 3; experiment: Caspase activities (AFC substrates), Jurkat; assay type: cell-based; conditions: Jurkat cells, within 6 hours
# Description: as §4, §5
# [10] = test system: cytochrome C; experiment: Western blotting for cytochrome C release; assay type: cell-based, human; conditions: HL60 cells, 12.5 and 25 μM, 12 hours
# Description: (§6) FIG. 12 illustrates that [Os3(CO)10(μ-H)(2-S)C9H6N] induces apoptosis through the mitochondrial pathway. HL60 cells (30×10^6) were treated with 12.5 (A) and 25 μM (B) of [Os3(CO)10(μ-H)(μ-S)C9H6N] treated for 12 hours and cytosolic and mitochondria fractions were subjected to SDS-PAGE electrophoresis, transferred to PVDF membrane, and probe with anti-Cyt.C and anti-Bax antibodies (C). Anti-βactin antibody was used to assess equal loading of samples.
# Cytochrome c release was assessed by Western blot analysis of cytosolic extracts from 30×10^6 cells as described previously (Hirpara, J. L. et al., J. Biol. Chem. (2001) 276, 514-521, incorporated herein by reference in its entirety; Pervaiz et al., 1999, supra). Cytosolic fractions were obtained and analysed by Western blotting.
# Briefly, cells were washed twice with ice-cold PBS, pH 7.4, followed by centrifugation at 200×g for 5 minutes. The cell pellet was then resuspended in 600 μL of extraction buffer, containing 200 mmol/L mannitol, 68 mmol/L sucrose, 50 mmol/L PIPES-KOH, pH 7.4, 50 mmol/L KCl, 5 mmol/L EGTA, 2 mmol/L MgCl2, 1 mmol/L DTT, and protease inhibitors (Complete Cocktail; Boehringer Mannheim, Mannheim, Germany). […] Signal was detected by the Super Signal Substrate Western Blotting kit (Pierce).
# [11] = test system: Bax; experiment: Western blot of Bax sub-cellular localization; assay type: cell-based, human; conditions: HL60 cells, 12.5 and 25 μM, 12 hours
# Description: as §6
# For analysis of poly(ADP-ribose) polymerase cleavage, lysates from 2×10^6 cells were prepared in sample buffer [50 mmol/L Tris/HCl (pH 6.8), 6 mol/L urea, 3% SDS, 0.003% Bromphenol Blue, and 6% β-mercaptoethanol] and subjected to Western blot analysis using anti-poly(ADP-ribose) polymerase (clone C-2-10, PharMingen) as described (Pervaiz et al., 199, supra). For Western blot analysis of Bax, cells (2×10^6) were lysed by adding […] of chilled 1× radioimmunoprecipitation assay buffer lysis buffer, and 50 μg of protein were subjected to 15% PAGE and transferred to polyvinylidene difluoride as above. Alternatively for analysis of Bax dimerization/multimerization, cell lysates were subjected to 10% native gel electrophoresis. […] Chemiluminescence was detected as described above.
# [12] = test system: Akt/PKB; experiment: Western blot of total Akt/PKB and Akt/PKB phosphorylation (Ser473); assay type: cell-based, human
# Description: The capability of the varying doses of [Os3(CO)10(μ-H)(μ-S)C9H6N] to dephosphorylate and deactivate Akt was shown by Western blot. HL 60 cells (2×10^6) were incubated with varying doses of [Os3(CO)10(μ-H)(μ-S)C9H6N] (12.5 and 25 μM) for 2, 4, and 6 hours and cell lysates were obtained for Western blot analysis of the Akt phosphorylation status.
# HL-60 cells (2×10^6) were plated in a 12 well plate followed by exposure to the drug. Cells were harvested, washed once with PBS, and then lysed with cell lysis buffer [150 mmol/L NaCl, Tris-HCl (pH 7.4), 1% NP40]. Cell lysate (200 μg) was then electrophoresed on an 8% acrylamide gel. Antibodies were used to probe for total Akt and phosphorylated Akt/PKB at the Ser473 position (Cell Signaling, Beverly, Mass.). Protein blots were probed with anti β-actin (Sigma-Aldrich, St. Louis, Mo.) to check for equal protein loading).
substance,measurement,setting,value
[Os3(CO)10(μ-H)(μ-S)C9H6N],percentage of sub-diploid DNA (sub-G1 fraction),[1],increased significantly
same,DNA fragmentation / apoptosis with Bcl-2 overexpression,[2],inhibited
same,DNA fragmentation / apoptosis with Bcl-2 overexpression,[2]; listed as [Os3(CO)10(μ-H)(μ-S)C9H9N],blocked
same,DNA fragmentation (sub-G1),[2]; Jurkat Neo,induces DNA fragmentation
same,intracellular O2− production,[3],early increase
same,intracellular O2− production,[4],early increase
same,cytosolic pH,[5],significant drop
same,intracellular H2O2,"[6]; HL-60, 12.5 and 25 μM, within 4 hours",significant surge
same,intracellular H2O2 in presence of catalase,"[6]; HL-60, catalase 1000 U/ml",completely blocked
same,surface expression of CD95,[7],upregulation; also recorded: significant increase
same,"activation of caspases 2, 8, 9 and 3",[8],induces caspase activation
same,"activation of caspases 2, 8, 9 and 3",[9],induces caspase activation
same,cytochrome C release,[10],occurred in a dose dependent manner
same,sub-cellular localization of Bax,[11],no significant change
same,total Akt signal,"[12]; HL-60, 12.5 and 25 μM, 2, 4 and 6 hours",remained almost unchanged
same,Akt phosphorylation,"[12]; HL-60, 12.5 and 25 μM, within 4 to 6 hours of exposure",down regulation; also recorded: strong inhibition
